Earlier results, collected in publication PMC5111365 (The Analyst, 2016).
No end group written: not given here. *: point of attachment. 5FAM = O=C1OC2(c3ccc(O)cc3Oc3cc(O)ccc32)c2ccc(C(=O)*)cc21

Assays:
[1] = molecular target: Abl-1 human recombinant protein (Homo sapiens, UniProt P00519); details: 12 nM kinase; data from previous work
[2] = 3 mg mL^-1 total protein, data from previous work

Abl-1 human recombinant protein, sequence (P00519 whole entry): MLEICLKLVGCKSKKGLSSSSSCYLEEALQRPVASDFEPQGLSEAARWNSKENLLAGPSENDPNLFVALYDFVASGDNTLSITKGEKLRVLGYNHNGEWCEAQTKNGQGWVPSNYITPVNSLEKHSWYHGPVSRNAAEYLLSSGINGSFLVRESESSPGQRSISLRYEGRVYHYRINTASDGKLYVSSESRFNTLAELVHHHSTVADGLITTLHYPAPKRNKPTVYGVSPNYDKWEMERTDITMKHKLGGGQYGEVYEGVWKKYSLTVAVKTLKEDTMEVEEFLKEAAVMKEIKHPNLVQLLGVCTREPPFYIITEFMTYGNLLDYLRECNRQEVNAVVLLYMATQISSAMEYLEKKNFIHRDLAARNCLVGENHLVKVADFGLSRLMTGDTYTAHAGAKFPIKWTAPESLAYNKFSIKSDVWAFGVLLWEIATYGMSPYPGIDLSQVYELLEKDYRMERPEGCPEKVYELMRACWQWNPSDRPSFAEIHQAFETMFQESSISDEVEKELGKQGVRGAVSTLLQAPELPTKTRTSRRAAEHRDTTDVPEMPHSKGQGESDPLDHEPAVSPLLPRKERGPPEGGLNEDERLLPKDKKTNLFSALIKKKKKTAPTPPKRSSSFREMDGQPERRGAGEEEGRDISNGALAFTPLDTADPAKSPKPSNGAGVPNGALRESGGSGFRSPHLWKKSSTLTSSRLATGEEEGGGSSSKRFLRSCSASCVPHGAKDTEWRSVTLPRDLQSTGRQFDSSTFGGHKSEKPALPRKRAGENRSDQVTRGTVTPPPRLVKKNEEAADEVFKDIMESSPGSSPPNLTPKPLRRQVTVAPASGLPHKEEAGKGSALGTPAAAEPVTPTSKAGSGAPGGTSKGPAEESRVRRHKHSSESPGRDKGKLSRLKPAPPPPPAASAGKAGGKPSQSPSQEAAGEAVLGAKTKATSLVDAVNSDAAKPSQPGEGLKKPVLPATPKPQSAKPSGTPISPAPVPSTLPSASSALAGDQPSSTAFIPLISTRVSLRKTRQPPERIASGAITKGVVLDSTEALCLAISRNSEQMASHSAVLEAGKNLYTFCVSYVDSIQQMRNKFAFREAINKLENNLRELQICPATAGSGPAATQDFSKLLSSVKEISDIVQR

What does the source list for 5FAM-GGAYAAPFKKKA [III-67B]?
t50% P, time required for 50% of the peptide to be phosphorylated by Abl-1 kinase [1]: 190 min; t1/2, time at which 50% of the peptide was degraded in the cytosolic lysate [2]: 1.3 min
